# In ChEMBL document CHEMBL1137978, “Three new compounds from the plant Lippia alva as inhibitors of chemokine receptor 5 (CCR5)” (Bioorg Med Chem Lett, 2004):
# pIC50: −log10 of the molar value.
# Tests used:
# Assay type in all cases: functional, cell-based
# [1] = molecular target: T1, C-C chemokine receptor type 5 (Homo sapiens, UniProt P51681); experiment: Inhibition of MIP-1beta ligand of chemokine receptor 5 induced calcium signal in U-87-CCR5 cells by calcium mobilization assay
# [2] = molecular target: T1, C-C chemokine receptor type 5; experiment: Inhibition of 50% of RANTES co-receptor of chemokine receptor 5 induced calcium signal in U-87-CCR5 cells by calcium mobilization assay
# [3] = molecular target: T1, C-C chemokine receptor type 5; experiment: Inhibition of MIP-1alpha ligand of chemokine receptor 5 induced calcium signal in U-87-CCR5 cells by calcium mobilization assay
# [4] = molecular target: T1, C-C chemokine receptor type 5; experiment: Inhibition of RANTES co-receptor of chemokine receptor 5 induced calcium signal in U-87-CCR5 cells by calcium mobilization assay
# T1 sequence (P51681 whole entry): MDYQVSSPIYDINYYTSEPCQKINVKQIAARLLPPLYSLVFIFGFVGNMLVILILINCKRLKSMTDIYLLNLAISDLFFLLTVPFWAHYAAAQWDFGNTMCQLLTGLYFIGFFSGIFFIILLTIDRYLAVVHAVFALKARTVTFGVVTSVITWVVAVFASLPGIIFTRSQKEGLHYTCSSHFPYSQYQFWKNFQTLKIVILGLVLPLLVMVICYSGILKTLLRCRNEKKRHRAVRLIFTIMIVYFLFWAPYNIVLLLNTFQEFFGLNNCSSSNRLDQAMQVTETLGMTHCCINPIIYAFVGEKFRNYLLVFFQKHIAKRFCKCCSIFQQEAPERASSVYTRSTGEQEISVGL
SMILES,pIC50 [1],pIC50 [2],pIC50 [3],pIC50 [4]
COc1ccc(/C=C/C(=O)OC(C)C(=O)[C@H]2C[C@@H]2[C@H](O)[C@H]2CC=CC(=O)O2)cc1 (some centres undefined),5.26,5.06,< 5.00,
CC(OC(=O)/C=C/c1ccc(O)cc1)C(=O)[C@H]1C[C@@H]1[C@H](O)[C@H]1CC=CC(=O)O1 (some centres undefined),5.14,,5.00,< 5.00
COc1ccc(/C=C\C(=O)OC(C)C(=O)[C@H]2C[C@@H]2[C@H](O)[C@H]2CC=CC(=O)O2)cc1 (some centres undefined),5.22,,5.06,< 5.00
